{
  "source": "paper PMC8434068",
  "about": "“An Evaluation of Understudied Phytocannabinoids and Their Effects in Two Neuronal Models” (Molecules, 2021)",
  "molecular_target": "T1, CB1 receptor (Rattus norvegicus, UniProt P20272)",
  "T1 construct": "gene Cnr1",
  "T1 sequence (P20272 whole entry)": "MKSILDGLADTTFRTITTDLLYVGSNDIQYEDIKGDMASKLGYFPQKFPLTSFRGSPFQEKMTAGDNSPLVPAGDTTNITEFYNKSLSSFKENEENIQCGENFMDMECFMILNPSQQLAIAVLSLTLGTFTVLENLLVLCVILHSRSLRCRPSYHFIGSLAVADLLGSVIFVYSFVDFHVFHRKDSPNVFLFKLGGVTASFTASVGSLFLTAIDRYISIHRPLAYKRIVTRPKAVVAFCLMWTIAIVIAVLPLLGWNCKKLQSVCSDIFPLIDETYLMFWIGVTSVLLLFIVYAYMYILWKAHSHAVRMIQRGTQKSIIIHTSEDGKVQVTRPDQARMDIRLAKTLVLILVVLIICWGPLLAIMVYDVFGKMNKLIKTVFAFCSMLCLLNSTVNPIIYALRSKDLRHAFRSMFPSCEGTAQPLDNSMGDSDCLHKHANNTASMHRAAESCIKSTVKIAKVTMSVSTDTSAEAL",
  "experiment": "Pink Flamindo cAMP assay in CB1-transfected HEK293 cells, antagonism of 2-AG; also reverses bath-applied 2-AG in autaptic neurons",
  "type": "cell-based",
  "data": [
    {"smiles": "CCCc1cc(O)c2c(c1)OC(C)(C)[C@@H]1CCC(C)=C[C@@H]21", "note": "[THCV, Δ^9-tetrahydrocannabivarin]", "values": [
      {"measurement": "IC50", "result": 7.3, "unit": "nM"}
    ]}
  ]
}
